As a reminder, the IC50 is the concentration that gives 50% inhibition. Low values mean higher potency, high ones lower potency. The term melting point denotes the temperature, or range, at which the solid turns liquid.

Data set [1] has as its system HCT116 (human colon carcinoma). The experiment in a line: Alamar blue cytotoxicity assay, HCT116. The format is cell-based. As to conditions: HCT-116, 72 h incubation. Here is the method:
(§1) The in vitro cytotoxic activity of the compounds (Table 1) was evaluated against cancer cell lines HCT116 (human colon carcinoma), HepG2 (human hepatocellular carcinoma), B16F10 (murine melanoma carcinoma) and non-cancerous cell line MRC-5 (human lung fibroblast) using the Alamar blue assay after 72 h of incubation; doxorubicin (DOX) was used as a positive control. The unsubstituted derivatives on the acridine cores were encoded as CL, and the disubstituted derivatives as DL.
(§2) The human cancer cell lines HCT116 (colon carcinoma) and HepG2 (hepatocellular carcinoma), the mouse cancer cell line B16-F10 (melanoma), and the non-cancerous human cell line MRC-5 (lung fibroblast) were obtained from the American Type Culture Collection (ATCC, Manassas, VA, USA) and cultured according to the ATCC animal cell culture guide. All cell lines tested negative for mycoplasma using a mycoplasma stain kit.
(§3) Cell viability was measured using the Alamar blue assay, as previously described. Cells were seeded in 96-well plates for all experiments. The compounds were dissolved in dimethyl sulfoxide (DMSO, Sigma-Aldrich) and added to each well in eight serial concentrations ranging from 0.19 to 25 μg/mL. As a positive control, doxorubicin was used. After 72 h of treatment, 20 μL of resazurin (0.312 mg/mL) was added to each well. A SpectraMax 190 Micro-plate Reader was used to measure absorbances at 570 and 595 nm (Molecular Devices, Sunnyvale, CA, USA). Nonlinear regression with 95% confidence intervals (CI 95%) was used to calculate the inhibitory concentration of 50% (IC50) using GraphPad Prism software (Intuitive Software for Science; San Diego, CA, USA).

For data set [2], the system named is HepG2 (human hepatocellular carcinoma). The experiment in a line: Alamar blue cytotoxicity assay, HepG2. The format is cell-based. The note with it: 72 h incubation. Here is the method:
as §1, §2, §3

Data set [3] concerns MRC-5 (human lung fibroblast). The experiment in a line: Alamar blue cytotoxicity assay, non-cancerous MRC-5. It counts as cell-based. The note with it: MRC5, 72 h incubation, non-cancerous cell. Here is the method: as §1, §2, §3
A general note: Resazurin is reduced to fluorescent resorufin, in cell work by metabolically active cells.

Data set [4] relates to B16-F10 (murine melanoma). The experiment in a line: Alamar blue cytotoxicity assay, B16-F10. It counts as cell-based. The note with it: Mus musculus, 72 h incubation. Here is the method:
as §1, §2, §3

For `S=C(N/N=C/c1ccccc1)Nc1c2ccccc2nc2ccccc12` [CL-01, (E)-N-(acridin-9-yl)-2-benzylidenehydrazine-1-carbothioamide], the IC50 in data set [1], in data set [2] and in data set [3] was above 70 µM throughout.
As to `S=C(N/N=C/c1ccc(Cl)cc1)Nc1c2ccccc2nc2ccccc12` [CL-02, (E)-N-(acridin-9-yl)-2-(4-chlorobenzylidene)hydrazine-1-carbothioamide], the IC50 in data set [1], in data set [2] and in data set [3] was above 70 µM each time.
With `COc1ccc(/C=N/NC(=S)Nc2c3ccccc3nc3ccccc23)cc1` [CL-03, (E)-N-(acridin-9-yl)-2-(4-methoxybenzylidene)hydrazine-1-carbothioamide], the IC50 in data set [4], in data set [1], in data set [2] and in data set [3] was above 70 µM in each case.
Take `S=C(N/N=C/c1ccc(Cl)cc1Cl)Nc1c2ccccc2nc2ccccc12` [CL-04, (E)-N-(acridin-9-yl)-2-(2,4-dichlorobenzylidene)hydrazine-1-carbothioamide]: the IC50 in data set [1], in data set [2] and in data set [3] was above 60 µM throughout.
Turning to `O=[N+]([O-])c1ccc(/C=N/NC(=S)Nc2c3ccccc3nc3ccccc23)cc1` [CL-05, (E)-N-(acridin-9-yl)-2-(4-nitrobenzylidene)hydrazine-1-carbothioamide], the IC50 in data set [4] is 22.7 µM; in data set [1], above 60 µM; in data set [2], above 60 µM; in data set [3] it was 26.8 µM.
Take `Cc1ccc(/C=N/NC(=S)Nc2c3ccccc3nc3ccccc23)cc1` [CL-06, (E)-N-(acridin-9-yl)-2-(4-methylbenzylidene)hydrazine-1-carbothioamide]: the IC50 was found to be 23.5 µM in data set [4], 64.8 µM in data set [1], 58.1 µM in data set [2] and 28 µM in data set [3].
For the compound `Oc1cccc(/C=N/NC(=S)Nc2c3ccccc3nc3ccccc23)c1` [CL-08, (E)-N-(acridin-9-yl)-2-(3-hydroxybenzylidene)hydrazine-1-carbothioamide], the IC50 was 21.3 µM in data set [4], 39.2 µM in data set [1], 49.4 µM in data set [2] and 33.4 µM in data set [3].
On to `CN(C)c1ccc(/C=N/NC(=S)Nc2c3ccccc3nc3ccccc23)cc1` [CL-09, (E)-N-(acridin-9-yl)-2-(4-(dimethylamino)benzylidene)hydrazine-1-carbothioamide], for which the IC50 in data set [1], in data set [2] and in data set [3] was above 60 µM in each case.
On to `S=C(N/N=C/c1ccc(Br)cc1)Nc1c2ccccc2nc2ccccc12` [CL-10, (E)-N-(acridin-9-yl)-2-(4-bromobenzylidene)hydrazine-1-carbothioamide], for which the IC50 in data set [1], in data set [2] and in data set [3] was above 60 µM each time.
Compound `COc1ccc2nc3cc(Cl)ccc3c(NC(=S)N/N=C/c3ccc(Cl)cc3)c2c1` [DL-02, (E)-N-(6-chloro-2-methoxyacridin-9-yl)-2-(4-chlorobenzylidene)hydrazine-1-carbothioamide] returned a melting point of 144 to 145 °C. The compound further showed an IC50 in data set [4] of 30.6 µM. The compound further yielded a 50% inhibitory concentration (IC50) in data set [1] above 60 µM. The compound further returned an IC50 in data set [2] above 60 µM. The same compound registered a half-inhibitory concentration (IC50) in data set [3] above 60 µM.
`COc1ccc(/C=N/NC(=S)Nc2c3ccc(Cl)cc3nc3ccc(OC)cc23)cc1` [DL-03, (E)-N-(6-chloro-2-methoxyacridin-9-yl)-2-(4-methoxybenzylidene)hydrazine-1-carbothioamide]: the melting point worked out at 148 °C. The IC50 in data set [4] is above 60 µM. In data set [1], this compound gave an IC50 above 60 µM. Moreover, in data set [2], the 50% inhibitory concentration (IC50) was above 60 µM. In data set [3], this compound came in with an IC50 above 60 µM.
On to `COc1ccc2nc3cc(Cl)ccc3c(NC(=S)N/N=C/c3ccc(Cl)cc3Cl)c2c1` [DL-04, (E)-N-(6-chloro-2-methoxyacridin-9-yl)-2-(2,4-dichlorobenzylidene)hydrazine-1-carbothioamide], for which the melting point fell in the range of 192 to 193 °C. The IC50 in data set [4] is above 60 µM. The compound also registered an IC50 in data set [1] above 60 µM. The IC50 in data set [2] is above 60 µM. Also, in data set [3], the IC50 is above 60 µM.
The compound `COc1ccc2nc3cc(Cl)ccc3c(NC(=S)N/N=C/c3ccc([N+](=O)[O-])cc3)c2c1` [DL-05, (E)-N-(6-chloro-2-methoxyacridin-9-yl)-2-(4-nitrobenzylidene)hydrazine-1-carbothioamide] displayed a melting point of 164 to 165 °C. Further, the IC50 in data set [4] is above 60 µM. Besides, the IC50 in data set [1] was above 60 µM. Besides, in data set [2], the IC50 was above 60 µM. This compound had an IC50 in data set [3] above 60 µM.
As to `COc1ccc2nc3cc(Cl)ccc3c(NC(=S)N/N=C/c3ccc(N(C)C)cc3)c2c1` [DL-09, (E)-N-(6-chloro-2-methoxyacridin-9-yl)-2-(4-(dimethylamino)benzylidene)hydrazine-1-carbothioamide], the melting point was in the range of 149 to 150 °C. This compound also came in with an IC50 in data set [4] of 46 µM. Further, the IC50 in data set [1] is above 60 µM. The compound also had an IC50 in data set [2] above 60 µM. The compound further returned an IC50 in data set [3] above 60 µM.
`COc1ccc2nc3cc(Cl)ccc3c(NC(=S)N/N=C/c3ccc(Br)cc3)c2c1` [DL-10, (E)-2-(4-bromobenzylidene)-N-(6-chloro-2-methoxyacridin-9-yl)hydrazine-1-carbothioamide] gave a melting point of 162 to 163 °C. The same compound yielded an IC50 in data set [4] of 34.6 µM. Moreover, in data set [1], the IC50 was above 50 µM. This compound showed an IC50 in data set [2] of 20.9 µM. For the same compound, the IC50 in data set [3] was above 50 µM.
`COc1cccc2c1C(=O)c1c(O)c3c(c(O)c1C2=O)C[C@@](O)(C(=O)CO)C[C@@H]3O[C@H]1C[C@H](N)[C@H](O)[C@H](C)O1` [DOX, doxorubicin, reference compound]: the IC50 in data set [4] is 0.03 µM; in data set [1], 0.15 µM; in data set [2], 0.15 µM; in data set [3], 2.22 µM.

These data come from article PMC9506480, “Synthesis and Evaluation of Antiproliferative Activity, Topoisomerase IIα Inhibition, DNA Binding and Non-Clinical Toxicity of New Acridine–Thiosemicarbazone Derivatives” (Pharmaceuticals, 2022).
